Assay [1] deals with T1, NLRP3 (Homo sapiens, UniProt Q96P20).
T1 construct: host or cells: THP-1 cells, PMA-differentiated, LPS-primed, nigericin-stimulated
Kind of assay: IL-1β assay (ELISA of THP-1 culture supernatant). It counts as cell-based. The following applies: PMA-differentiated THP-1, LPS 50 ng/ml 4 h, compound 30 min, nigericin 15 μM 45 min; Human IL-1β ELISA. As to the method:
(§1) THP-1 cell lines (procell, #CL-0233) were cultured in RPMI-1640 medium (Gibco, #C11875500BT) supplemented with 10% FBS, 100 U/ml penicillin, 100 µg/ml streptomycin and 0.05 mM β-mercaptoethanol (BME). THP-1 cells were seeded at 5×10^5/ml in 12 well plates and were differentiated into macrophages by incubation with 5 ng/ml PMA (Sigma, #P8139-1MG) for 48 h. Cells were washed with PBS and then were primed with 50 ng/ml LPS (InvivoGen, #tlrl-b5lps) for 4 h. Medium were removed and replaced with serum free medium (SFM) containing compound (2.5-40 nM) or MCC950 (5-25 nM) for 30 min. Cells were then stimulated with 15 μM nigericin (Invivogen, #tlrl-nig) for 45 min.
The culture supernatant of THP-1 was removed and analyzed using Human IL-1β ELISA Kit according to the manufacturer's instructions (Beyotime, #PI305). The IL-1β concentration was measured at 450 nm wavelength of absorbance and calculated.
In general terms: An ELISA detects its analyte on a solid surface through an enzyme-linked reagent.

Assay [2] deals with T1, NLRP3. Nature of the assay: THP-1 pyroptosis assay (caspase-1 p20 in supernatant by Western blot). The class given is cell-based. The following applies: PMA-differentiated THP-1, LPS 50 ng/ml 4 h, compound 30 min, nigericin 15 μM 45 min; caspase-1 p20 Western blot. On the procedure: as §1
The protein of supernatants was concentrated using StrataClean™ resin (Agilent, #400714) according to the manufacturer's instructions. The protein samples were resolved on 4-20% SDS-PAGE gels and transferred onto 0.45 PVDF membrane (Immobilon-P #IPVH00010) using a wet transfer system. Membranes were blocked in 5% (w/v) dried milk in PBST for 1 h at room temperature. Membranes were incubated with primary antibody (Adipogen, #AG-20B-0048B-C100) diluted in Primary Antibody Dilution Buffer (Beyotime, #P0023A-100 ml) according to the manufacturer's instructions, followed by incubation with the IgG(H+L) (HRP-labeled Goat Anti-Mouse IgG(H+L) (Beyotime, #A0216) diluted in 1% (w/v) dried milk in PBST for 1 h. The protein expression was visualized using Super ECL Detection Reagent (YEASEN,
FIG. 1. Results of Western blots for THP-1 cell-based pyroptosis assay using the cleavage of caspase-1 into p20 as reporting indication of NLRP3 inhibition. […] Molecule N-027 (Compound #51) and N-027B (Compound #53) inhibits NLRP3 inflammasome activation in macrophages, N-027 IC50 (caspase-1)<5 nM; N-027B IC50 (caspase-1) 1 nM. THP-1 cells were primed for 4 h with LPS (50 ng/ml), and then LPS-primed THP-1 cells were incubated with N-027 or N-027B for 30 min and then stimulated with nigericin (15 μM) for 45 min. Caspase-1 (p20) in supernatants were measured by Western blots.
(In general: In western blotting, separated proteins are transferred to a membrane and probed.)

The IC50 is the concentration that inhibits the measured activity by half. Higher therefore signals lower potency.

T1 sequence (Q96P20 whole entry): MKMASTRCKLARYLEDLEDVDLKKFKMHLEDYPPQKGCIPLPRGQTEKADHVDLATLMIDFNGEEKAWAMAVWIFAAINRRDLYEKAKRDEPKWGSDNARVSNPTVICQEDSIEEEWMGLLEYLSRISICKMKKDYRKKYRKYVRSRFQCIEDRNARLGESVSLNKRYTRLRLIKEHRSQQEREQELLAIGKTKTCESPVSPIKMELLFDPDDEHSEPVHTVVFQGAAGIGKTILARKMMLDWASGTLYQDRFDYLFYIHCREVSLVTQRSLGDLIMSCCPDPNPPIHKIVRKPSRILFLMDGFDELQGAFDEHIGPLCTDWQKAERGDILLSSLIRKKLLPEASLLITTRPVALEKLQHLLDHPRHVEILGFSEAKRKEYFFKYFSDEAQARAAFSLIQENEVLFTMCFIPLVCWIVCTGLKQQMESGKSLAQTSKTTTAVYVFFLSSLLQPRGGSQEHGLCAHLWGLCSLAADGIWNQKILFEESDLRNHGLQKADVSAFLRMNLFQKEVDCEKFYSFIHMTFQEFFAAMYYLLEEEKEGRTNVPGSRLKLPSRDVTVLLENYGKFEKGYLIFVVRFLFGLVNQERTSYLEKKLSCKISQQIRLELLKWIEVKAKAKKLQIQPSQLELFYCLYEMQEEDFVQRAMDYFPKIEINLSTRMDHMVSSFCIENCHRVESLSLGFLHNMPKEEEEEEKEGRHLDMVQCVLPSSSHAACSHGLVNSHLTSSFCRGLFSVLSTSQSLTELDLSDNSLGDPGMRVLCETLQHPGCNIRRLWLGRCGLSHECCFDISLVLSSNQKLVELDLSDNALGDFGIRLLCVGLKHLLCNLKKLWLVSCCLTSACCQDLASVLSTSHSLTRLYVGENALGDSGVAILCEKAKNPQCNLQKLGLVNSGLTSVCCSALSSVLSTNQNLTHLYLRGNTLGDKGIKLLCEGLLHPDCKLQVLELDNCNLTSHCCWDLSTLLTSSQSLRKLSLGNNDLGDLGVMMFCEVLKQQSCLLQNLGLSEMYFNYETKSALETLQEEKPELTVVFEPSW

Take `O=c1[nH]c(N2CCCC2)nc2nn(-c3c(F)cc(Br)cc3F)nc12` [Compound 99, 2-(4-bromo-2,6-difluorophenyl)-5-(pyrrolidin-1-yl)-2,6-dihydro-7H-[1,2,3]triazolo[4,5-d]pyrimidin-7-one]: the IC50 at NLRP3 [1] is under 20 nM; at NLRP3 [2], under 10 nM.

Turning to `CCN1CCN(c2nc3nn(-c4ccc(C5CC5)cc4C(F)(F)F)nc3c(=O)[nH]2)CC1` [Compound 100, 2-(4-cyclopropyl-2-(trifluoromethyl)phenyl)-5-(4-ethylpiperazin-1-yl)-2,6-dihydro-7H-[1,2,3]triazolo[4,5-d]pyrimidin-7-one], the IC50 against NLRP3 [1] was under 200 nM; at NLRP3 [2] it was under 100 nM.

In the case of `CCN1CCN(c2nc3nn(-c4c(C)cc(C5CC5)cc4C)nc3c(=O)[nH]2)CC1` [Compound 102, 2-(4-cyclopropyl-2,6-dimethylphenyl)-5-(4-ethylpiperazin-1-yl)-2,6-dihydro-7H-[1,2,3]triazolo[4,5-d]pyrimidin-7-one], the results for the IC50 on NLRP3 [1] and on NLRP3 [2] were over 100 nM and under 40 nM, respectively.

In the case of `O=c1[nH]c(N2CCOCC2)nc2nn(-c3c(F)cc(C4CC4)cc3Cl)nc12` [Compound 103, 2-(2-chloro-4-cyclopropyl-6-fluorophenyl)-5-morpholino-2,6-dihydro-7H-[1,2,3]triazolo[4,5-d]pyrimidin-7-one], the IC50 against NLRP3 [1] and on NLRP3 [2] was under 10 nM throughout.

Values taken from US20250092051A1, “NLRP3 MODULATORS AND USE THEREOF” (Bioentropy Inc., priority 2023, published 2025).
